Assay [1] relates to NCI-H460. Put plainly: Cytotoxicity against human NCI-H460 cells by MTT assay. The assay is classed as functional, cell-based.
Assay [2] has as its system HCT-116. Kind of assay: Cytotoxicity against human HCT116 cells by MTT assay. Format: functional, cell-based. (Tetrazolium assays rely on reduction of a dye to a coloured formazan, in cell work by metabolically active cells.)
Assay [3] concerns A549. Put plainly: Cytotoxicity against human A549 cells by MTT assay. Format: functional, cell-based.
Assay [4] in a line: Inhibition of tubulin polymerization.

Molecules are shown by their SMILES.

`CCc1cc(S(=O)(=O)N2C[C@H](c3ccccc3)NC2=O)ccc1NC(=O)OC`: the IC50 (in general, the concentration at which inhibition is half-maximal) was determined as 0.3 µM in assay [1], 0.2 µM in assay [2] and 0.25 µM in assay [3].

For the molecule `CCOC(=O)Nc1ccc(S(=O)(=O)N2C(=O)N[C@@H](c3ccccc3)C2C)cc1Cl` (some centres not stated), the IC50 in assay [1] was found to be 6 µM; in assay [2], 5.5 µM; in assay [3], 6 µM.

For `CCOC(=O)Nc1c(C)cc(S(=O)(=O)N2C[C@H](c3ccccc3)NC2=O)cc1C`, the IC50 in assay [1], in assay [2] and in assay [3] was above 10 µM throughout.

Consider `Cc1cc(S(=O)(=O)N2C(=O)N[C@@H](c3ccccc3)C2C)ccc1NC(=O)c1ccc(N)cc1` (some centres not stated), for which the IC50 in assay [1], in assay [2] and in assay [3] was above 10 µM in each case.

Consider `COc1cccc2c1C(=O)c1c(O)c3c(c(O)c1C2=O)C[C@@](O)(C(=O)CO)C[C@@H]3O[C@H]1C[C@H](N)[C@H](O)[C@H](C)O1` [DOXORUBICIN], for which the IC50 in assay [1] came out at 0.456 µM; in assay [2] it was 0.4 µM.

Consider `Nc1ccc(C(=O)Nc2ccc(S(=O)(=O)N3C[C@H](c4ccccc4)NC3=O)cc2Cl)cc1`, for which the IC50 in assay [4] was found to be 5.5 µM.

With `CCOC(=O)Nc1ccc(S(=O)(=O)N2C[C@H](c3ccccc3)NC2=O)cc1Cl`, the results for the IC50 in assay [1], in assay [2] and in assay [3] were 0.02 µM, 0.2 µM and 0.02 µM, respectively.

On to `CCOC(=O)Nc1ccc(S(=O)(=O)N2C(=O)N[C@@H](c3ccccc3)C2C)cc1C` (some centres not stated), for which the IC50 in assay [1] stood at 5 µM; in assay [2], 5.5 µM; in assay [3] it was 5 µM.

As for `CCc1cc(S(=O)(=O)N2C[C@H](c3ccccc3)NC2=O)ccc1NC(=O)c1ccc([N+](=O)[O-])cc1`, the results for the IC50 in assay [1], in assay [2] and in assay [3] were 0.8 µM, 0.5 µM and 0.7 µM, respectively.

In the case of `CC1[C@H](c2ccccc2)NC(=O)N1S(=O)(=O)c1ccc(NC(=O)c2ccc(N)cc2)c(Cl)c1` (some centres not stated), the concentration for half-maximal inhibition (IC50) in assay [1], in assay [2] and in assay [3] was above 10 µM each time.

For `CCCCOC(=O)Nc1ccc(S(=O)(=O)N2C[C@H](c3ccccc3)NC2=O)cc1CC`, the IC50 in assay [1], in assay [2] and in assay [3] was 0.2 µM each time.

As for `CCOC(=O)Nc1ccc(S(=O)(=O)N2C[C@H](c3ccccc3)NC2=O)cc1CC`, the IC50 in assay [1] was 0.07 µM; in assay [2], 0.07 µM; in assay [3], 0.06 µM.

On to `CCc1cc(S(=O)(=O)N2C[C@H](c3ccccc3)NC2=O)ccc1NC(=O)c1ccc(N)cc1`, for which the IC50 came to 0.67 µM in assay [1], 0.46 µM in assay [2] and 0.22 µM in assay [3].

Turning to `CCc1cc(S(=O)(=O)N2C[C@H](c3ccccc3)NC2=O)ccc1NC(=O)NC1CCCCC1`, the values for the IC50 in assay [1], in assay [2] and in assay [3] were 0.3 µM, 0.3 µM and 0.5 µM, respectively.

`CCOC(=O)Nc1ccc(S(=O)(=O)N2C[C@H](c3ccccc3)NC2=O)c(C)c1C`: the figures for the IC50 in assay [1], in assay [2] and in assay [3] were 0.3 µM, 0.35 µM and 0.3 µM, respectively.

`CCc1cc(S(=O)(=O)N2C[C@H](c3ccccc3)NC2=O)ccc1NC(=O)OCC(C)C`: the IC50 in assay [1] came out at 0.08 µM; in assay [2], 0.06 µM; in assay [3] it was 0.07 µM.

Turning to `CCOC(=O)Nc1ccc(S(=O)(=O)N2C[C@H](c3ccccc3)NC2=O)cc1C`, the IC50 in assay [1] turned out to be 0.07 µM; in assay [4], 6 µM; in assay [2], 0.07 µM; in assay [3], 0.05 µM.

Consider `CC1[C@H](c2ccccc2)NC(=O)N1S(=O)(=O)c1ccc(NC(=O)c2ccc([N+](=O)[O-])cc2)c(Cl)c1` (some centres not stated), for which the IC50 in assay [1], in assay [2] and in assay [3] was above 10 µM in each case.

Consider `CCc1cc(S(=O)(=O)N2C[C@H](c3ccccc3)NC2=O)ccc1NC(=O)OC(C)C`, for which the IC50 in assay [1], in assay [2] and in assay [3] was 0.06 µM each time.

As for `Cc1cc(S(=O)(=O)N2C(=O)N[C@@H](c3ccccc3)C2C)ccc1NC(=O)c1ccc([N+](=O)[O-])cc1` (some centres not stated), the IC50 in assay [1], in assay [2] and in assay [3] was above 10 µM in each case.

On to `CCCOC(=O)Nc1ccc(S(=O)(=O)N2C[C@H](c3ccccc3)NC2=O)cc1CC`, for which the IC50 in assay [1], in assay [2] and in assay [3] was 0.06 µM throughout.

As for `CCOC(=O)Nc1ccc(S(=O)(=O)N2C[C@H](c3ccccc3)NC2=O)cc1F`, the IC50 in assay [1] stood at 4.5 µM; in assay [2], 5 µM; in assay [3], 3.8 µM.

On to `CCc1cc(S(=O)(=O)N2C[C@H](c3ccccc3)NC2=O)ccc1NC(=O)NC(C)C`, for which the figures for the IC50 in assay [1], in assay [2] and in assay [3] were 0.07 µM, 0.06 µM and 0.1 µM, respectively.

(Values after ChEMBL document CHEMBL1909508, “Structure-activity relationship study of arylsulfonylimidazolidinones as anticancer agents” (Bioorg Med Chem Lett, 2011).)
